Data on 25 compounds can be found in patent US12545639B2, “3-substituted phenylamidine compounds, preparation and use thereof” (PI INDUSTRIES LTD., priority 2019, dated 2026).

Bounds are passed on as bounds.

The subject of assay [1] is Pyricularia oryzae. As to the kind of experiment: microbe, parasite or virus in culture. It is filed as cell-based. To be noted: 168 h, read-out: control compared to the untreated check (radial growth).
Assay [2] relates to Alternaria solani. As to the kind of experiment: Alternaria solani (early blight of tomato/potato) in vitro test, radial growth on potato dextrose agar. To be noted: 168 h, 300 ppm in potato dextrose agar, 25° C., 60% relative humidity, seven days, read-out: control compared to the untreated check (radial growth). It is filed as cell-based.

Turning to `CCN(C)C=Nc1cc(Cl)cc(N(C)c2ccc(OC)c(F)c2)c1C` [Compound 267, N′-(5-chloro-3-((3-fluoro-4-methoxyphenyl)(methyl)amino)-2-methylphenyl)-N-ethyl-N-methylformimidamide], in assay [1], the inhibition of growth at 300 ppm was no less than 70%.

`CCc1cccc(Nc2cc(F)cc(N=CN(C)CC)c2C)n1` [Compound 227, N-ethyl-N′-(3-((6-ethylpyridin-2-yl)amino)-5-fluoro-2-methylphenyl)-N-methylformimidamide]: in assay [2], the inhibition of growth at 300 ppm was no less than 70%.

With `CCN(C)C=Nc1cc(C)cc(Nc2cc(F)cc(Cl)c2)c1Cl` [Compound 97, N′-(2-chloro-3-((3-chloro-5-fluorophenyl)amino)-5-methylphenyl)-N-ethyl-N-methylformimidamide], the inhibition of growth at 300 ppm in assay [1] is no less than 70%.

Consider `CCN(C)C=Nc1cc(Cl)cc(N(C)c2cccc(C(F)(F)F)n2)c1C` [Compound 289, N′-(5-chloro-2-methyl-3-(methyl(6-(trifluoromethyl)pyridin-2-yl)amino)phenyl)-N-ethyl-N-methylformimidamide], for which the inhibition of growth at 300 ppm in assay [2] and in assay [1] was no less than 70% in each case.

On to `CCN(C)C=Nc1cc(C)cc(Nc2ccc3ncsc3c2)c1Cl` [Compound 228, N′-(3-(benzo[d]thiazol-6-ylamino)-2-chloro-5-methylphenyl)-N-ethyl-N-methylformimidamide], for which the inhibition of growth at 300 ppm in assay [2] and in assay [1] was no less than 70% throughout.

Regarding `CCN(C)C=Nc1cc(Cl)cc(Cc2ccc(SC)cc2)c1C` [Compound 252, N′-(5-chloro-2-methyl-3-(4-(methylthio)benzyl)phenyl)-N-ethyl-N-methylformimidamide], in assay [1], the inhibition of growth at 300 ppm was no less than 70%.

For the compound `CCN(C)C=Nc1cc(OC)cc(Nc2ccc(OC)c(F)c2)c1C` [Compound 269, N-ethyl-N′-(3-((3-fluoro-4-methoxyphenyl)amino)-5-methoxy-2-methylphenyl)-N-methylformimidamide], the inhibition of growth at 300 ppm in assay [2] was no less than 70%.

Consider `CCN(C)C=Nc1cc(Cl)cc(Cc2cccc(C#N)c2)c1C` [Compound 250, N′-(5-chloro-3-(3-cyanobenzyl)-2-methylphenyl)-N-ethyl-N-methylformimidamide], for which the inhibition of growth at 300 ppm in assay [1] was no less than 70%.

On to `CCN(C)C=Nc1cc(C)cc(Nc2cc(F)cc(F)c2)c1Cl` [Compound 78, N′-(2-chloro-3-((3,5-difluorophenyl)amino)-5-methylphenyl)-N-ethyl-N-methylformimidamide], for which the inhibition of growth at 300 ppm in assay [2] and in assay [1] was no less than 70% in each case.

Consider `CCN(C)C=Nc1cc(Cl)cc(Cc2ccc(C(F)(F)F)cc2)c1C` [Compound 249, N′-(5-chloro-2-methyl-3-(4-(trifluoromethyl)benzyl)phenyl)-N-ethyl-N-methylformimidamide], for which the inhibition of growth at 300 ppm in assay [1] is no less than 70%.

In the case of `CCN(C)C=Nc1cc(Cl)cc(Cc2cccc(OC(F)(F)F)c2)c1C` [Compound 251, N′-(5-chloro-2-methyl-3-(3-(trifluoromethoxy)benzyl)phenyl)-N-ethyl-N-methylformimidamide], the inhibition of growth at 300 ppm in assay [1] is no less than 70%.

With `CCN(C)C=Nc1cc(C)cc(N(C)c2cc(F)cc(F)c2)c1Cl` [Compound 74, N′-(2-chloro-3-((3,5-difluorophenyl)(methyl)amino)-5-methylphenyl)-N-ethyl-N-methylformimidamide], in assay [2], the inhibition of growth at 300 ppm was no less than 70%.

With `CCN(C)C=Nc1cc(C)cc(N(C)c2ncccc2C)c1Cl` [Compound 108, N′-(2-chloro-5-methyl-3-(methyl(3-methylpyridin-2-yl)amino)phenyl)-N-ethyl-N-methylformimidamide], the inhibition of growth at 300 ppm in assay [2] and in assay [1] was no less than 70% each time.

As for `CCN(C)C=Nc1cc(C)cc(N(C)c2cccc(OC)c2)c1Cl` [Compound 49, N′-(2-chloro-3-((3-methoxyphenyl)(methyl)amino)-5-methylphenyl)-N-ethyl-N-methylformimidamide], the inhibition of growth at 300 ppm in assay [2] and in assay [1] was no less than 70% each time.

As for `CCN(C)C=Nc1cc(F)cc(C(=O)COc2ccc(OC)cc2Cl)c1C` [Compound 304, N′-(3-(2-(2-chloro-4-methoxyphenoxy)acetyl)-5-fluoro-2-methylphenyl)-N-ethyl-N-methylformimidamide], the inhibition of growth at 300 ppm in assay [2] and in assay [1] was no less than 70% each time.

In the case of `CCN(C)C=Nc1cc(C)cc(N(C)c2cccc(C(F)(F)F)n2)c1Cl` [Compound 290, N′-(2-chloro-5-methyl-3-(methyl(6-(trifluoromethyl)pyridin-2-yl)amino)phenyl)-N-ethyl-N-methylformimidamide], the inhibition of growth at 300 ppm in assay [2] and in assay [1] was no less than 70% each time.

As to `CCN(C)C=Nc1cc(C)cc(Nc2cc(Cl)cc(C(F)(F)F)c2)c1Cl` [Compound 137, N′-(2-chloro-3-((3-chloro-5-(trifluoromethyl)phenyl)amino)-5-methylphenyl)-N-ethyl-N-methylformimidamide], the inhibition of growth at 300 ppm in assay [2] and in assay [1] was no less than 70% in each case.

With `CCN(C)C=Nc1cc(C)cc(Cc2ccccc2C#N)c1Cl` [Compound 47, N′-(2-chloro-3-(2-cyanobenzyl)-5-methylphenyl)-N-ethyl-N-methylformimidamide], the inhibition of growth at 300 ppm in assay [2] and in assay [1] was no less than 70% throughout.

Take `CCN(C)C=Nc1cc(C)cc(N(C)c2ccc3ncsc3c2)c1Cl` [Compound 240, N′-(3-(benzo[d]thiazol-6-yl(methyl)amino)-2-chloro-5-methylphenyl)-N-ethyl-N-methylformimidamide]: the inhibition of growth at 300 ppm in assay [2] and in assay [1] was no less than 70% each time.

Regarding `CCN(C)C=Nc1cc(C)cc(N(C)c2ccccn2)c1Cl` [Compound 107, N′-(2-chloro-5-methyl-3-(methyl(pyridin-2-yl)amino)phenyl)-N-ethyl-N-methylformimidamide], in assay [1], the inhibition of growth at 300 ppm is no less than 70%.

Take `CCN(C)C=Nc1cc(Cl)cc(Cc2cccnc2)c1C` [Compound 248, N′-(5-chloro-2-methyl-3-(pyridin-3-ylmethyl)phenyl)-N-ethyl-N-methylformimidamide]: the inhibition of growth at 300 ppm in assay [1] is no less than 70%.

On to `CCN(C)C=Nc1cc(C#N)cc(Cc2cccc(C#N)c2)c1C` [Compound 309, N′-(5-cyano-3-(3-cyanobenzyl)-2-methylphenyl)-N-ethyl-N-methylformimidamide], for which the inhibition of growth at 300 ppm in assay [1] was no less than 70%.

Take `CCN(C)C=Nc1cc(OC)cc(Nc2ccccc2OC)c1C` [Compound 268, N-ethyl-N′-(5-methoxy-3-((2-methoxyphenyl)amino)-2-methylphenyl)-N-methylformimidamide]: the inhibition of growth at 300 ppm in assay [2] is no less than 70%.

Consider `CCN(C)C=Nc1cc(F)cc(N(C)c2ccc3ncsc3c2)c1C` [Compound 238, N′-(3-(benzo[d]thiazol-6-yl(methyl)amino)-5-fluoro-2-methylphenyl)-N-ethyl-N-methylformimidamide], for which the inhibition of growth at 300 ppm in assay [2] and in assay [1] was no less than 70% in each case.

With `CCN(C)C=Nc1cc(C#N)cc(Cc2cccc(Br)c2)c1C` [Compound 313, N′-(3-(3-bromobenzyl)-5-cyano-2-methylphenyl)-N-ethyl-N-methylformimidamide], the inhibition of growth at 300 ppm in assay [1] is no less than 70%.
